“And” between values parts separate entries of the source, which are not always exact repeats. Identical values can stand only once. Counter-ions that a name gives are not always drawn. Like-named read-outs stand apart in the source and are kept apart here.
Legend:
[1] = tested on: methicillin-resistant Staphylococcus aureus clinical strain MRSA; assay: Broth microdilution assay (MIC); type: cell-based
Procedure: (§1) The antibacterial activity of all compounds was evaluated by determining the minimum inhibitory concentration (MIC), which is defined as the lowest concentration of the compound at which no visible bacterial growth is detected. The compounds were tested against representatives of Gram-positive and Gram-negative strains, including the ESKAPE bacterium Staphylococcus aureus ATCC25923 and the clinical isolate of methicillin-resistant S. aureus (MRSA), which are known for their pathogenicity.
(§2) The collection included five Gram-positive strains, including Staphylococcus aureus (ATCC 25923 and a methicillin-resistant Staphylococcus aureus clinical strain MRSA), Bacillus cereus ATCC 14579, Enterococcus faecalis ATCC 29212, and Listeria monocytogenes ATCC 7644; and three Gram-negative strains: Escherichia coli ATCC 25922, Pseudomonas aeruginosa ATCC 27853 and the food isolate Salmonella enterica. All microbial strains were maintained at ™80 °C for long-term storage and subcultured on Mueller-Hinton (MH) agar (Biolife, Italy) prior to broth microdilution experiments. The MH plates were stored at +4 °C for no longer than one month.
(§3) Antibacterial activity was evaluated using the Broth Microdilution Assay according to the Clinical and Laboratory Standard Institute’s Methods for Dilution Antimicrobial Susceptibility Test for Bacteria That Grow Aerobically; Approved Standard-Tenth Edition.
(§4) The stock solution of QAS (10 mg/mL) was prepared in 4% DMSO. Then, 100 µL of the tested QAS was added to the first well of the microtiter plate. Twofold serial dilutions in Muller-Hinton broth were performed over the entire plate at a concentration range of 5 mg/mL to 5 µg/mL. To each well, 50 µL of mid-exponentially grown inoculum containing 10^5 CFU/mL in Mueller-Hinton broth was added and incubated at 37 °C for 18 hours. The minimum inhibitory concentration (MIC) was determined as the lowest concentration at which no visually detectable bacterial growth occurred in the wells.

[2] = tested on: Salmonella enterica food isolate; assay: Broth microdilution assay (MIC); type: cell-based; settings: S. enterica food isolate
Procedure: as §1, §2, §3, §4

[3] = tested on: Listeria monocytogenes ATCC7644; assay: Broth microdilution assay (MIC); type: cell-based
Procedure: as §1
(§5) All microbial strains were maintained at ™80 °C for long-term storage and subcultured on Mueller-Hinton (MH) agar (Biolife, Italy) prior to broth microdilution experiments. The MH plates were stored at +4 °C for no longer than one month.
as §3
as §4, with “To each well, 50 µL of mid-exponentially grown inoculum containing 10^5 CFU/mL in Mueller-Hinton broth was added and incubated at 37 °C for 18 hours.” left out

[4] = tested on: Enterococcus faecalis ATCC29212; assay: Broth microdilution assay (MIC); type: cell-based
Procedure: as §1, §5, §3
as §4, with “To each well, 50 µL of mid-exponentially grown inoculum containing 10^5 CFU/mL in Mueller-Hinton broth was added and incubated at 37 °C for 18 hours.” left out

[5] = tested on: Staphylococcus aureus ATCC25923; assay: Broth microdilution assay (MIC); type: cell-based; settings: Staphylococcus aureus
Procedure: as §1, §5, §3
as §4, with “To each well, 50 µL of mid-exponentially grown inoculum containing 10^5 CFU/mL in Mueller-Hinton broth was added and incubated at 37 °C for 18 hours.” left out

[6] = tested on: Escherichia coli ATCC25922; assay: Broth microdilution assay (MIC); type: cell-based
Procedure: as §1, §5, §3
as §4, with “To each well, 50 µL of mid-exponentially grown inoculum containing 10^5 CFU/mL in Mueller-Hinton broth was added and incubated at 37 °C for 18 hours.” left out

[7] = tested on: Bacillus cereus ATCC14579; assay: Broth microdilution assay (MIC); type: cell-based
Procedure: as §1, §5, §3
as §4, with “To each well, 50 µL of mid-exponentially grown inoculum containing 10^5 CFU/mL in Mueller-Hinton broth was added and incubated at 37 °C for 18 hours.” left out

[8] = tested on: Pseudomonas aeruginosa ATCC27853; assay: Broth microdilution assay (MIC); type: cell-based
Procedure: as §1, §5, §3
as §4, with “To each well, 50 µL of mid-exponentially grown inoculum containing 10^5 CFU/mL in Mueller-Hinton broth was added and incubated at 37 °C for 18 hours.” left out

[9] = tested on: Tobacco mosaic virus (TMV); assay: Antiphytoviral activity assay (local lesions on host plant leaves); type: in vivo, Tobacco mosaic virus on Datura stramonium; settings: Datura stramonium leaves, compound 100 µg/mL inoculated simultaneously with TMV; for Percentage of inhibition of local lesions: vs control plants
Procedure: Leaves of Nicotiana tabacum L. cv. Samsun plants systemically infected with Tobacco mosaic virus (TMV) were ground in 0.06 mol/L phosphate buffer, pH 7.0 (1:1, w/v) to prepare virus inocula. […] Leaves of the local host Datura stramonium L. were dusted with silicon carbide (Sigma-Aldrich, St. Louis, MO, USA) before virus inoculation, and the inoculum was diluted with inoculation buffer to obtain 5–20 lesions per inoculated leaf. Experiments were performed when the experimental plants reached the 4–6 leaf stage.
The tested QAS (10 mg/mL) were dissolved in 4% DMSO and added to the virus inocula at a final concentration of 100 µg/mL. DMSO was added to the control virus inocula at the same concentration. The control and treated plants were then rubbed with the prepared inocula and the antiviral activity of the tested compounds was evaluated by the percentage inhibition of the number of local lesions on the leaves of the treated and control plants as described in [40]. The obtained data were analyzed in Excel (Microsoft Office) and significant differences were determined by t-test.

[10] = ATCC25922, 18 h, E. coli ATCC25922
[11] = 18 h, L. monocytogenes ATCC7644, read-out: MIC
[12] = 18 h, E. faecalis ATCC29212, read-out: MIC
[13] = S. aureus ATCC25923, 18 h, 37 °C, read-out: MIC
[14] = ATCC25922, 18 h, E. coli ATCC25922, read-out: MIC
[15] = 18 h, B. cereus ATCC14579, read-out: MIC
[16] = 18 h, P. aeruginosa ATCC27853, read-out: MIC

Row | SMILES | MIC ([1]; MRSA, 18 h) [µg/mL] | MIC ([2]; 18 h) | melting point [°C] | MIC ([3]; ATCC7644, 18 h) | MIC ([4]; ATCC29212, 18 h) | MIC ([5]; ATCC25923, 18 h) [µg/mL] | MIC ([7]; ATCC14579, 18 h) [µg/mL] | MIC ([8]; ATCC27853, 18 h) | MIC [3, 11] | MIC [4, 12] | MIC [5, 13] [µg/mL] | MIC [6, 14] | MIC [7, 15] [µg/mL] | MIC [8, 16] | also measured
1 | ON=Cc1cc[n+](CCCCCCCCCCCCBr)cc1.[Br-] [Py-C12Br, N-(12-bromododecyl)-4-hydroxyiminomethylpyridinium bromide] | 310 | 2500 µg/mL and 5550 µM | 109 to 110 | 1250 µg/mL and 2780 µM | 1250 µg/mL and 2780 µM | 160 | 630 | 2500 µg/mL and 5550 µM |  |  |  |  |  |  | MIC [6, 10]: 630 µg/mL and 1400 µM; Number of local lesions (LLN ± SD) [9]: 6.3±1.6; Percentage of inhibition of local lesions [9]: 57.7%
2 | ON=Cc1cc[n+](Cc2ccc(OC(F)(F)F)cc2)cc1 (as salt: bromide) [Py-BnOCF3, N-(p-trifluoromethoxy)benzyl-4-hydroxyiminomethylpyridinium bromide] |  |  | 175 to 176 |  |  |  |  |  |  |  |  |  |  |  | 
3 | O=[N+]([O-])c1ccc(C[n+]2ccc(C=NO)cc2)cc1 [Py-BnNO2] | > 5000 | 5000 µg/mL and 14800 µM |  | > 5000 µg/mL and > 14800 µM | > 5000 µg/mL and > 14800 µM | 5000 | > 5000 | > 5000 µg/mL and > 14800 µM |  |  |  |  |  |  | MIC ([6]; ATCC25922, 18 h): 2500 µg/mL and 7390 µM
4 | ON=Cc1cc[n+](Cc2ccc(OC(F)(F)F)cc2)cc1 [Py-BnOCF3, N-(p-trifluoromethoxy)benzyl-4-hydroxyiminomethylpyridinium bromide] | 1250 | 2500 µg/mL and 6630 µM |  |  |  |  |  |  | 2500 µg/mL and 6630 µM | 2500 µg/mL and 6630 µM | 310 | 310 µg/mL | 2500 | 2500 µg/mL and 6630 µM | 
5 | ON=Cc1cc[n+](Cc2ccc(Br)cc2)cc1 [Py-BnBr] | 1250 | 630 µg/mL |  |  |  |  |  |  | 2500 µg/mL and 6720 µM | 2500 µg/mL and 6720 µM | 1250 | 160 µg/mL | 2500 | 5000 µg/mL and 13400 µM | 
6 | ON=Cc1cc[n+](Cc2ccc(F)cc2)cc1.[Br-] [Py-BnF, N-p-fluorobenzyl-4-hydroxyiminomethylpyridinium bromide] | > 5000 | > 5000 µg/mL and > 16100 µM | 181 to 183 | > 5000 µg/mL and > 16100 µM | > 5000 µg/mL and > 16100 µM | 5000 | > 5000 | > 5000 µg/mL and > 16100 µM |  |  |  |  |  |  | MIC [6, 10]: 630 µg/mL
7 | CO/N=C(\C(=O)N[C@@H]1C(=O)N2C(C(=O)O)=C(COC(C)=O)CS[C@H]12)c1csc(N)n1 [Cefotaxime, reference compound] |  |  |  |  |  |  |  |  |  |  |  |  |  |  | MIC ([1]; S. aureus clinical/MRSA, read-out: MIC): > 119 µg/mL; MIC ([1]; S. aureus clinical/MRSA, standards, read-out: MIC): > 250 µM; MIC ([2]; standards): 0.1 µg/mL and 0.2 µM; MIC ([3]; L. monocytogenes ATCC7644, standards, read-out: MIC): 3.7 µg/mL and 10 µM; MIC ([4]; E. faecalis ATCC29212, standards, read-out: MIC): 29.8 µg/mL and 60 µM; MIC ([5]; S. aureus ATCC25923, standards, read-out: MIC): 3.7 µg/mL and 10 µM; MIC ([6]; ATCC25922, E. coli ATCC25922, standards, read-out: MIC): 0.2 µg/mL and 0.4 µM; MIC ([7]; B. cereus ATCC14579, standards, read-out: MIC): 3.7 µg/mL and 10 µM; MIC ([8]; P. aeruginosa ATCC27853, standards, read-out: MIC): 59.7 µg/mL and 130 µM
8 | ON=Cc1cc[n+](Cc2ccc(Cl)cc2)cc1 [Py-BnCl] | 2500 | 2500 µg/mL and 7630 µM |  |  |  |  |  |  | 2500 µg/mL and 7630 µM | 5000 µg/mL and 15300 µM | 1250 | 310 µg/mL | 5000 | 5000 µg/mL and 15300 µM | 
9 | ON=Cc1cc[n+](Cc2ccc(C(F)(F)F)cc2)cc1 (as salt: bromide) [Py-BnCF3, N-(p-(trifluoromethyl))benzyl-4-hydroxyiminomethylpyridinium bromide] |  |  | 186 to 187 |  |  |  |  |  |  |  |  |  |  |  | 
10 | CCCCCCCCCCCC[N+](C)(C)Cc1ccccc1.[Br-] [BAB, benzalkonium bromide, reference compound] |  |  |  |  |  |  |  |  |  |  |  |  |  |  | Number of local lesions (LLN ± SD) [9]: 0.2 and 0.2±0.2; Percentage of inhibition of local lesions [9]: 98.7%
11 | Cc1ccc(C[n+]2ccc(C=NO)cc2)cc1 [Py-BnCH3] | 5000 | 630 µg/mL |  |  |  |  |  |  | 1250 µg/mL and 4070 µM | 2500 µg/mL and 8140 µM | 2500 | 5000 µg/mL and 16300 µM | 5000 | > 5000 µg/mL and > 16300 µM | 
12 | ON=Cc1cc[n+](CCCCCCCCBr)cc1.[Br-] [Py-C8Br, N-(8-bromooctyl)-4-hydroxyiminomethylpyridinium bromide] | 2500 | > 5000 µg/mL and > 12700 µM | 100 to 101 | 1250 µg/mL and 3170 µM | 2500 µg/mL and 6340 µM | 5000 | 2500 | > 5000 µg/mL and > 12700 µM |  |  |  |  |  |  | MIC [6, 10]: 1250 µg/mL and 3170 µM
13 | ON=Cc1cc[n+](Cc2ccc(C(F)(F)F)cc2)cc1 [Py-BnCF3, N-(p-(trifluoromethyl))benzyl-4-hydroxyiminomethylpyridinium bromide] | 1250 | 1250 µg/mL and 3460 µM |  |  |  |  |  |  | 2500 µg/mL and 6920 µM | 2500 µg/mL and 6920 µM | 630 | 2500 µg/mL and 6920 µM | 1250 | 5000 µg/mL and 13800 µM | 
14 | ON=Cc1cc[n+](Cc2ccccc2)cc1 [Py-Bn] | > 5000 | > 5000 µg/mL and > 17000 µM |  | > 5000 µg/mL and > 17000 µM | > 5000 µg/mL and > 17000 µM | > 5000 | > 5000 | > 5000 µg/mL and > 17000 µM |  |  |  |  |  |  | MIC ([6]; ATCC25922, 18 h): 1250 µg/mL and 4260 µM
15 | ON=Cc1cc[n+](CCCCCCCCCCBr)cc1.[Br-] [Py-C10Br, N-(10-bromodecyl)-4-hydroxyiminomethylpyridinium bromide] | 310 | 5000 µg/mL and 11800 µM | 103 to 105 | 5000 µg/mL and 11800 µM | 5000 µg/mL and 11800 µM | 630 | 630 | > 5000 µg/mL and > 11800 µM |  |  |  |  |  |  | MIC [6, 10]: 630 µg/mL and 1490 µM

Reference: article PMC9315884, “New Membrane Active Antibacterial and Antiviral Amphiphiles Derived from Heterocyclic Backbone of Pyridinium-4-Aldoxime” (Pharmaceuticals, 2022)
